Reference: patent publication US20260083864A1, “CONTRAST AGENTS FOR USE IN DIAGNOSTIC COMPUTED TOMOGRAPHY IMAGING” (Bayer Aktiengesellschaft, priority 2022, published 2026)

Legend:
[1] = Biliary elimination in bile duct cannulated (BDC) rats; conditions: 0.1 mmol Gd/kg bw i.v.
Procedure: All animals are initially anesthetized using a body weight-adjusted intramuscular injection of a mixture (1+2) of xylazine hydrochloride (20 mg/mL, Rompun 2%, Bayer Vital GmbH, Leverkusen) and ketamine hydrochloride (100 mg/mL, Ketavet, Pfizer, Pharmacia GmbH, Berlin) using 1 mL/kg body weight. The continuous anesthesia of the animals is achieved by the intravenous injection of 1.5 mL per hour (Braun perfusor infusion of 1+2, 1:20 saline, xylazine hydrochloride 20 mg/mL, Rompun 2%, Bayer Vital GmbH, Leverkusen and ketamine hydrochloride 100 mg/mL, Ketavet, Pfizer, Pharmacia GmbH, Berlin) via tail vein (Introcan, 24G, yellow). The animals received 0.1 mmol Gd/kg bw as intravenous bolus injection via tail vein (50 mmol Gd/L formulation). Bile was sampled 0-0.5 h, 0.5-1 h, 1-2 h, 2-3 h und 3-4 h post injection. […] The bile fractions (n=3 times 10 μL) were dried for 2 h at 90° C. and 50 μL 65% nitric acid (HNO3, Fa. Fisher, Optima Grade #1219010) and 30 μL hydrogen peroxide 30% (H2O2 Fa VWR Chemicals, AnalaR NORMAPUR, #18J024022) were added and processed in microwave oven (5 cycles: 5 min 40W, 5 min 120W, 10 min 200W, 10 min 320W and 25 min 400W, Fa. CEM, Mars5 Xpress).

[2] = reference compounds, 1.5 T, 37° C., from Rohrer et al.; cited from earlier work
[3] = reference compounds, 1.5 T, 37° C., bovine plasma instead of human plasma, from Rohrer et al.; cited from earlier work

Row | Compound | Biliary excretion, % of injected dose, Mean ± SD (cumulative) ([1]; bile fraction 0-0.5 h) | Biliary excretion, % of injected dose, Mean ± SD (cumulative) ([1]; bile fraction 0.5-1 h) | Biliary excretion, % of injected dose, Mean ± SD (cumulative) ([1]; bile fraction 1-2 h) | Biliary excretion, % of injected dose, Mean ± SD (cumulative) ([1]; bile fraction 2-3 h) | Biliary excretion, % of injected dose, Mean ± SD (cumulative) ([1]; bile fraction 3-4 h) | r1 water [2] | r1 plasma (r1 human plasma) [3]
1 | CCOc1ccc(CCOCC(C(=O)O)N2CCN(CC(=O)[O-])CCN(CC(=O)[O-])CCN(CC(=O)[O-])CC2)cc1.[Gd+3] (stereo not shown) [Example 1, gadolinium 2,2′,2″-(10-{1-carboxy-2-[2-(4-ethoxyphenyl)ethoxy]ethyl}-1,4,7,10-tetraazacyclododecane-1,4,7-triyl)triacetate] | 55.5 ± 1.7% | 62.6 ± 0.7% | 65.1 ± 1.3% | 65.6 ± 1.6% | 65.8 ± 1.7% | – | –
2 | CCOc1ccc(CC(CN(CCN(CC(=O)[O-])CC(=O)[O-])CC(=O)[O-])N(CC(=O)[O-])CC(=O)[O-])cc1.[Gd+3].[Na+].[Na+] (stereo not shown) [RC1, gadoxetate disodium, reference compound] | – | – | – | – | – | 3.3 L/mmol/s | 5.2 L/mmol/s
